Results reported in ChEMBL document CHEMBL1122660 (J Med Chem, 1984).

Legend:
P388 [1] = test: Maximum percent T/C (antitumor activity) against P388 leukemia cells; format: functional, Mus musculus
P388 [2] = test: Optimum dose (mg/kg) against P388 leukemic cells; format: functional, Mus musculus
P388 [3] = test: Maximum percent T/C (antitumor activity) against P388 leukemia cells for Mitomycin C; format: functional, Mus musculus
P388 [4] = test: Minimum effective dose against P388 leukemic cells; format: functional; details: Mus musculus, read-out: MED
P388 [5] = test: Ratio of optimal dose (OD) and minimum effective dose (MED) required for antitumor activity in mice bearing P-388 lymphocytic leukemia; format: functional, Mus musculus
[6] = Partition coefficient between 1-octanol and water containing phosphate buffer at pH 7.4; format: physicochemical; details: 1-octanol/water containing phosphate buffer
Mus musculus = species on record: Mus musculus; test: Percentage change in WBC at optimum dose on day 3; format: functional
[7] = Distribution between 1-octanol and water containing phosphate buffer at pH 7.4; format: physicochemical; details: 1-octanol/water containing phosphate buffer

Compound | T/C (P388 [1]) | OD (P388 [2]) | T/C (P388 [3]) | minimal effective dose (P388 [4]) | Therapeutic ratio (P388 [5]) | logD [6] | Change (Mus musculus) | logD [7]
COc1ccc(NC2=C(C)C(=O)C3=C(C2=O)[C@H](COC(N)=O)C2(OC)[C@@H]4N[C@@H]4CN32)cc1N (stereo partly specified) | 228% | 6.4 mg/kg | 311% | 0.2 mg/kg | 32 |  |  | 
COC1=C/C(=N/c2c(C)c(O)c3c(c2O)[C@H](COC(N)=O)C2(OC)[C@@H]4N[C@@H]4CN32)C=CC1=N (stereo partly specified) | 239% | 25.6 mg/kg | 311% | 1.6 mg/kg | 16 |  |  | 
COC12[C@@H]3N[C@@H]3CN1C1=C(C(=O)C(Nc3ccc(S(N)(=O)=O)cc3)=C(C)C1=O)[C@@H]2COC(N)=O (stereo partly specified) | 225% | 25.6 mg/kg | 213% | 0.2 mg/kg | 128 | -0.52 |  | 
COC12[C@@H]3N[C@@H]3CN1C1=C(C(=O)C(Nc3ccc(I)cc3)=C(C)C1=O)[C@@H]2COC(N)=O (stereo partly specified) | 128% | 25.6 mg/kg | 200% | 25.6 mg/kg | 1 | 2.42 |  | 
COC12[C@@H]3N[C@@H]3CN1C1=C(C(=O)C(Nc3ccc4c(c3)OCO4)=C(C)C1=O)[C@@H]2COC(N)=O (stereo partly specified) | 167% | 3.2 mg/kg | 211% | < 0.2 mg/kg | >16 |  |  | 
COC12[C@@H]3N[C@@H]3CN1C1=C(C(=O)C(Nc3cccc(C#N)c3)=C(C)C1=O)[C@@H]2COC(N)=O (stereo partly specified) | 172% | 12.8 mg/kg | 156% | 0.2 mg/kg | 64 | 0.73 |  | 
COC12[C@@H]3N[C@@H]3CN1C1=C(C(=O)C(Nc3ccc4[nH]ncc4c3)=C(C)C1=O)[C@@H]2COC(N)=O (stereo partly specified) | 206% | 25.6 mg/kg | 250% | 0.2 mg/kg | 128 |  |  | 
COc1ccccc1/N=C1/C(=O)C2=C(C(O)=C1C)N1C[C@H]3N[C@H]3C1(OC)[C@H]2COC(N)=O (stereo partly specified) | 200% | 25.6 mg/kg | 206% | 0.4 mg/kg | 128 |  |  | 
COC12[C@@H]3N[C@@H]3CN1c1c(O)c(C)c(N=C3C=CC(=S)C=C3)c(O)c1[C@@H]2COC(N)=O (stereo partly specified) | 131% | 25.6 mg/kg | 250% | 1.6 mg/kg | 16 | 1.69 |  | 
COC12[C@@H]3N[C@@H]3CN1C1=C(C(=O)C(Nc3cccc4nsnc34)=C(C)C1=O)[C@@H]2COC(N)=O (stereo partly specified) | 161% | 12.8 mg/kg | 250% | 0.8 mg/kg | 32 |  |  | 
COc1cc(/N=C2/C(=O)C3=C(C(O)=C2C)N2C[C@H]4N[C@H]4C2(OC)[C@H]3COC(N)=O)c2ncccc2c1 (stereo partly specified) | 178% | 6.4 mg/kg | 178% | 0.4 mg/kg | 16 |  |  | 
COC12[C@@H]3N[C@@H]3CN1C1=C(C(=O)C(Nc3cccc(N)c3)=C(C)C1=O)[C@@H]2COC(N)=O (stereo partly specified) | 222% | 1.6 mg/kg | 200% | < 0.2 mg/kg | >8 | 0.07 | -17% | 
COC12[C@@H]3N[C@@H]3CN1c1c(O)c(C)c(N=C3C=CC(=O)C=C3)c(O)c1[C@@H]2COC(N)=O (stereo partly specified) | >300% | 25.6 mg/kg | 144% | 0.2 mg/kg | 128 | 0.63 | -27% | 
COC12[C@@H]3N[C@@H]3CN1C1=C(C(=O)C(Nc3cccc(O)c3)=C(C)C1=O)[C@@H]2COC(N)=O (stereo partly specified) | 356% | 12.8 mg/kg | 211% | < 0.2 mg/kg | >64 | 0.63 |  | 
[H][C@@]12CN3c4c(O)c(C)c(/N=C5C=C/C(=N/C(N)=O)C=C\5)c(O)c4[C@H](COC(N)=O)C3(OC)[C@]1([H])N2 (stereo partly specified) | 194% | 25.6 mg/kg | 278% | 1.6 mg/kg | 16 | 0 |  | 
COC12[C@@H]3N[C@@H]3CN1C1=C(C(=O)C(Nc3ccc(C)cc3)=C(C)C1=O)[C@@H]2COC(N)=O (stereo partly specified) | 206% |  | 200% |  | 32 | 1.86 | -37% | 
COC12[C@@H]3N[C@@H]3CN1c1c(O)c(C)c(/N=C3/C=CC(=N)N=C3)c(O)c1[C@@H]2COC(N)=O (stereo partly specified) | 277% | 12.8 mg/kg | 206% | 0.4 mg/kg | 32 |  |  | -0.32

Compound | T/C (P388 [1]) | OD (P388 [2]) | T/C (P388 [3]) | minimal effective dose (P388 [4]) | Therapeutic ratio (P388 [5]) | logD [6] | Change (Mus musculus) | logD [7]
COC12[C@@H]3N[C@@H]3CN1C1=C(C(=O)C(Nc3ccc([N+](=O)[O-])cc3)=C(C)C1=O)[C@@H]2COC(N)=O (stereo partly specified) | 172% | 3.2 mg/kg | 233% | < 0.2 mg/kg | >16 | 1.02 |  | 
COC12[C@@H]3N[C@@H]3CN1c1c(O)c(C)c(/N=C3\C=CC(=O)C=C3C)c(O)c1[C@@H]2COC(N)=O (stereo partly specified) | 244% | 25.6 mg/kg | 200% | 0.4 mg/kg | 64 |  | -34% | 
COC12[C@@H]3N[C@@H]3CN1C1=C(C(=O)C(Nc3ccccc3)=C(C)C1=O)[C@@H]2COC(N)=O (stereo partly specified) | 161% | 12.8 mg/kg | 200% | 1.6 mg/kg | 8 | 1.3 |  | 
COC12[C@@H]3N[C@@H]3CN1C1=C(C(=O)C(Nc3nc4c(Cl)cccc4s3)=C(C)C1=O)[C@@H]2COC(N)=O (stereo partly specified) | 144% | 25.6 mg/kg | 319% | 0.4 mg/kg | 64 |  |  | 
COC12[C@@H]3N[C@@H]3CN1C1=C(C(=O)C(Nc3cccc(Cl)c3)=C(C)C1=O)[C@@H]2COC(N)=O (stereo partly specified) | 139% | 12.8 mg/kg | 156% | 6.4 mg/kg | 2 | 2.01 |  | 
COC12[C@@H]3N[C@@H]3CN1C1=C(C(=O)C(Nc3cc(C)ns3)=C(C)C1=O)[C@@H]2COC(N)=O (stereo partly specified) | 169% | 25.6 mg/kg | 325% |  | 32 |  |  | -0.3
COC12[C@@H]3N[C@@H]3CN1C1=C(C(=O)C(Nc3ccc(F)cc3)=C(C)C1=O)[C@@H]2COC(N)=O (stereo partly specified) | 167% | 12.8 mg/kg | 278% |  | 32 | 1.44 |  | 
COC12[C@@H]3N[C@@H]3CN1C1=C(C(=O)C(Nc3nc4ccc([N+](=O)[O-])cc4s3)=C(C)C1=O)[C@@H]2COC(N)=O (stereo partly specified) | 128% | 25.6 mg/kg | 156% | 25.6 mg/kg | 1 |  |  | 
COC12[C@@H]3N[C@@H]3CN1C1=C(C(=O)C(Nc3nc4ccccc4s3)=C(C)C1=O)[C@@H]2COC(N)=O (stereo partly specified) | 150% | 25.6 mg/kg | 325% | 12.8 mg/kg | 2 |  |  | 
COC12[C@@H]3N[C@@H]3CN1C1=C(C(=O)C(Nc3nc4cc(Cl)ccc4o3)=C(C)C1=O)[C@@H]2COC(N)=O (stereo partly specified) | 178% | 25.6 mg/kg | 267% | 1.6 mg/kg | 16 |  | -33% | 
COC12[C@@H]3N[C@@H]3CN1C1=C(C(=O)C(Nc3cccc(NC(C)=O)c3)=C(C)C1=O)[C@@H]2COC(N)=O (stereo partly specified) | 231% | 25.6 mg/kg | 211% | 0.2 mg/kg | 128 | 0.33 |  | 
COC12[C@@H]3N[C@@H]3CN1C1=C(C(=O)C(Nc3ccc(C#N)cc3)=C(C)C1=O)[C@@H]2COC(N)=O (stereo partly specified) | 150% | 3.2 mg/kg | 233% | 0.8 mg/kg | 4 | 0.72 |  | 
COC12[C@@H]3N[C@@H]3CN1C1=C(C(=O)C(Nc3nnc(C)s3)=C(C)C1=O)[C@@H]2COC(N)=O (stereo partly specified) | 222% | 25.6 mg/kg | 267% | 0.8 mg/kg | 32 |  | -32% | 
COC12[C@@H]3N[C@@H]3CN1C1=C(C(=O)C(Nc3cccc(C)c3)=C(C)C1=O)[C@@H]2COC(N)=O (stereo partly specified) | 181% | 12.8 mg/kg | 319% | 0.4 mg/kg | 32 | 1.83 |  | 
COc1cccc(NC2=C(C)C(=O)C3=C(C2=O)[C@H](COC(N)=O)C2(OC)[C@@H]4N[C@@H]4CN32)c1 (stereo partly specified) | 181% | 12.8 mg/kg | 319% | 0.2 mg/kg | 64 | 1.28 |  | 
COc1cc(NC2=C(C)C(=O)C3=C(C2=O)[C@H](COC(N)=O)C2(OC)[C@@H]4N[C@@H]4CN32)cc(OC)c1 (stereo partly specified) | 161% | 6.4 mg/kg | 278% | 0.4 mg/kg | 16 |  |  | 
